Experimental data from the METLIN SMRT retention time set (Domingo-Almenara et al. 2019).

Test: gradient 5% acetonitrile 3 min, to 50% in 2 min, to 85% in 15 min, held 3 min, 100 µL/min
Settings: column: Zorbax Extend-C18 2.1 x 50 mm; eluents: water / acetonitrile, 0.1% formic acid
Procedure, shortened: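 Pure standards were run in mixtures of ~100 molecules by HPLC coupled to a quadrupole time-of-flight mass spectrometer. The column was a Zorbax Extend-C18 (2.1 × 50 mm, 1.8 μm) at 100 μL/min, with water and acetonitrile each containing 0.1% formic acid, in positive and negative ionization mode. Dead and dwell volumes were 40 μL and 900 μL. Retention time was taken from computationally picked adduct peaks, each manually inspected, with data collected over 3 months.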

Structure (SMILES)	RP-LC retention time
CCN1C(=O)c2cc(S(=O)(=O)Nc3ccc(F)c(C)c3)ccc2Oc2cccnc21	1060 s
COc1ccc(CCNC(=O)c2cc3c(=O)n(C)c(=O)n(C)c3s2)cc1OC	668 s
CC(C)NC(=O)c1cc(N(C)C)nc2ccccc12	587 s
COc1cc(/C=C2\CCCN([C@@H](C)c3ccc(F)cc3)C2=O)ccc1-n1cnc(C)c1	834 s
Cc1cc(NC(=O)NCCn2nnc3cc(C(=O)N(C)C)ccc32)ccc1Br	707 s
CCC(=O)Nc1ccc(-n2cnc(C(=O)NCC(C)C)c2)nc1	667 s
CCCC(NC(=O)c1ccc(F)c(F)c1)C(=O)Nc1nc2ccccc2[nH]1 (configuration not stated)	712 s
CCN1C(=O)COc2ccc(-c3csc(NC(=O)c4ccccc4Cl)n3)cc21	968 s
COc1ccc(-c2cc3nn(CC(=O)Nc4ccc(C)c(C)c4)c(=O)n3c(C)n2)cc1	980 s
CCSc1nccc2c1ccn2CC(=O)NCc1ccc(OC)cc1OC	651 s
CC1=NS(=O)(=O)N(Cc2ccccc2)C=C1C(=O)OCc1cc(C)ccc1C	1200 s
NC(=O)c1cnn(-c2cccc(F)c2)c1-n1cccc1	734 s
CC(C)c1ccc(S(=O)(=O)N2CCC3(CCN(c4cccnc4)C3)C2)cc1 (configuration not stated)	736 s
Cc1nc(-c2noc(-c3ccncc3)n2)cn1CC(=O)NCc1ccc(Cl)cc1	683 s
COc1cccc(C(=O)CC2(O)C(=O)Nc3c(C)cccc32)c1 (configuration not stated)	728 s
CCOC(=O)c1csc(NC(=O)CC[C@H]2NC(=O)c3ccccc3NC2=O)n1	648 s
CCOC(=O)c1c(C)oc2nc(C)nc(NCCc3ccc(C)cc3)c12	1330 s
NC(=O)c1cc(-c2ccccc2)nc2ccccc12	743 s
O=C(Nc1cnc(N2CCCC2)nc1)c1ccc(F)c(F)c1	748 s
CCN1C=C(C(=O)OCc2ccccc2)C(C)=NS1(=O)=O	958 s
C#Cc1cccc(NC(=O)c2ccc(Cl)cc2Cl)c1	1060 s
CCN1C(=O)CCc2cc(NS(=O)(=O)c3ccc(Cl)c(Cl)c3)ccc21	904 s

The remaining lines, values ahead:

RP-LC retention time	Structure (SMILES)
892 s	CCCSc1nnc(NC(=O)CCc2ccc(C)o2)s1
707 s	CCCS(=O)(=O)N1CCc2c(c(CN(C(C)=O)c3ccccc3)nn2C)C1
709 s	O=C(N1CCN(S(=O)(=O)Cc2ccccc2)CC1)N1C[C@H]2C[C@H](C1)[C@H]1CCCC(=O)N1C2
615 s	COc1cccc(-c2noc(C3CCCN3C(=O)NCc3ccco3)n2)c1 (configuration not stated)
600 s	Cc1cccc2nnc(N3CCCN(C(=O)c4ccccc4Cl)CC3)n12
748 s	Cc1ccc(CCCN2CCCC(COc3ccccc3C(=O)N3CCCCC3)C2)o1 (configuration not stated)
619 s	O=C(CC(c1ccc(F)cc1)N1Cc2ccccc2C1=O)NCCCN1CCCC1 (configuration not stated)
876 s	CC(C)NC(=O)c1ccc(OCC2CCCN(C(=O)c3ccc(Br)o3)C2)cc1 (configuration not stated)
726 s	O=C(NCc1ccccc1Cl)C1CCc2nc(N3CCOCC3)ncc2C1 (configuration not stated)
832 s	O=C(c1ccc2ccccc2n1)N1CCC(OCC2CC2)C1 (configuration not stated)
910 s	Cc1cccc(N2CCN(C3=NC(=O)C(Cc4ccccc4)S3)CC2)c1 (configuration not stated)
669 s	COCCNC(=O)N1CCCN(C2=NS(=O)(=O)C(c3ccc(F)cc3)=C2C)CC1
589 s	COc1ccc(CC(=O)N2CCc3nc(CNC(=O)C4CCC4)n(C)c3C2)cc1
1200 s	CCCSCCCNC(=O)C1CCCN(c2nc3ccccc3n(Cc3ccccc3)c2=O)C1 (configuration not stated)
946 s	CC(C)Oc1ccc(CNC(=O)C2CCCN(c3ccc(=O)n(-c4cccc(Cl)c4)n3)C2)cc1 (configuration not stated)
